Measured values published in paper PMC11984586, “A novel spider toxin as a selective antagonist of the Kv1 subfamily of voltage-gated potassium channels through gating modulation” (The Journal of Biological Chemistry, 2025).
Bridge positions count the residues as written; N and C are the ends. Peptide text beside a SMILES is read from it.

How the values were obtained:
[1] = biological target: T1, hKv1.7 (Homo sapiens, UniProt Q96RP8); assay: Whole-cell patch clamp, Kv1.7 ionic current in CHO-K1 cells; assay type: cell-based; details: mean ± SD
T1 construct: expressed in transfected cells; host or cells: CHO-K1
Procedure: (§1) The cDNA of hKv1.1, hKv1.2, hKv1.3, rKv1.4, hKv1.5, mKv1.6, and hKv1.7 were subcloned into mammalian expression vectors pcDNA3.1 or pCMV-blank vectors, as well as other plasmids described previously ([35]). Channel mutants were generated by site-directed mutations. Briefly, the parental channel plasmid was amplified using a pair of oppositely directed primers harboring the designed mutation site, with KOD Fx (TOYOBO Co, Ltd). The resulting PCR mix was treated with FastDigest DpnI (Thermo Fisher Scientific) to remove the methylated template. Ten microliters of the digested product was then used to transform 100 μl E. coli DH5α competent cells. […]
(§2) CHO-K1 cells were selected for expressing Kv channels due to their lack of endogenous Kv channels, while HEK293 or ND7/23 cells were used for Nav and Cav channel expression. […] After 4 to 6 h transfection, cells were seeded onto poly-lysine–coated coverslips, and 24 to 36 h later, transfected cells were ready for patch-clamp analysis. […]
(§3) For Kv current recordings, the bath solution contained (in mM) the following: 140 NaCl, 5 KCl, 1 MgCl2, 2 CaCl2, 10 glucose, and 10 Hepes (pH 7.3, adjusted with NaOH), and the pipette solution contained (in mM) the following: 140 KCl, 2.5 MgCl2, 11 EGTA, and 10 Hepes (pH 7.3, adjusted with KOH). […] The steady-state fast inactivation of Kv1.3 was measured using a two-pulses protocol. […]

[2] = test system: Kv1.1/Y256A; assay: Whole-cell patch clamp, Tyr-to-Ala mutant homologous to Kv1.3 Y339; assay type: cell-based, human; details: 10 μM MrVIII, +30 mV, 500 ms, holding −80 mV, mean ± SD, n = 4–6
Text: (§4) Building on the identification of key amino acid residues in Kv1.3 channel that interact with MrVIII through alanine-scanning mutagenesis, we extended our analysis to explore these residues across other Kv1 subfamily channels. […] However, MrVIII retained substantial inhibitory potency on Kv1.2/Y266A mutant, albeit without fully blocking the channel current. […] The profound reduction in MrVIII's effect across homologous mutants supports the idea that it binds to a conserved region.
as §1, §2
(§5) For Kv current recordings, the bath solution contained (in mM) the following: 140 NaCl, 5 KCl, 1 MgCl2, 2 CaCl2, 10 glucose, and 10 Hepes (pH 7.3, adjusted with NaOH), and the pipette solution contained (in mM) the following: 140 KCl, 2.5 MgCl2, 11 EGTA, and 10 Hepes (pH 7.3, adjusted with KOH). […] Whole cell conductance (G) at each depolarizing voltage (V) was determined using the equation: G = I/(V−Vrev), where I is the current amplitude, and Vrev is the reversal potential. […] The steady-state fast inactivation of Kv1.3 was measured using a two-pulses protocol. […]

[3] = test system: Kv1.5/Y368A; assay: as above; assay type: cell-based, human; details: 10 μM MrVIII, +30 mV, 500 ms, holding −80 mV, mean ± SD, n = 4–6
Text: as §4, §1, §2, §5

[4] = test system: Kv1.7/Y253A; assay: as above; assay type: cell-based, human; details: 10 μM MrVIII, +30 mV, 500 ms, holding −80 mV, mean ± SD, n = 4–6
Text: as §4, §1, §2, §5

[5] = test system: Kv1.4/Y416A; assay: as above; assay type: cell-based, rat; details: 10 μM MrVIII, +30 mV, 500 ms, holding −80 mV, mean ± SD, n = 4–6
Text: as §4
as §1, with “template.” for “template. Ten microliters of the digested product was then used to transform 100 μl E. coli DH5α competent cells.”
as §2

[6] = biological target: T2, Kv1.7/A256T (Homo sapiens, UniProt Q96RP8, A256T); assay: Whole-cell patch clamp, Kv1.7 point mutant; assay type: cell-based
T2 construct: expressed in transfected cells; host or cells: CHO-K1
Text: This observation prompted further exploration of the potential function of the homologous residue in the Kv1.7 channel, where the corresponding site is occupied by an alanine.
The cDNA of hKv1.1, hKv1.2, hKv1.3, rKv1.4, hKv1.5, mKv1.6, and hKv1.7 were subcloned into mammalian expression vectors pcDNA3.1 or pCMV-blank vectors, as well as other plasmids described previously ([35]). Channel mutants were generated by site-directed mutations. Briefly, the parental channel plasmid was amplified using a pair of oppositely directed primers harboring the designed mutation site, with KOD Fx (TOYOBO Co, Ltd). […]
as §2, §3

T2 sequence (Q96RP8 whole entry A256T): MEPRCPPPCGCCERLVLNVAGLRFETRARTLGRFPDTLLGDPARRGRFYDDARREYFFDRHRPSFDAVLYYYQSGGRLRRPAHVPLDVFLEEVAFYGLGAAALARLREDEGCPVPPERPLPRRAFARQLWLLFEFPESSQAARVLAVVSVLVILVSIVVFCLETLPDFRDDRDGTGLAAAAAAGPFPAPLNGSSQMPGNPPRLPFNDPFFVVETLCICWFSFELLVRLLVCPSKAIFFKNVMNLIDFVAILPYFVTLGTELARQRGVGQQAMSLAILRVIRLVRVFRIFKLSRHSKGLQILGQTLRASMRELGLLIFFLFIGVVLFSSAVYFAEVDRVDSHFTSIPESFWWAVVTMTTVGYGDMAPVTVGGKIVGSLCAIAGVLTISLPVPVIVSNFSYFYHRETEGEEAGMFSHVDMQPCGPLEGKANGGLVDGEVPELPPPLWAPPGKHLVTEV
T1 sequence (Q96RP8 whole entry): as the sequence (Q96RP8 whole entry A256T) above, with T256A counted along it

Structure (SMILES): CC[C@H](C)[C@@H]1NC(=O)[C@H](Cc2ccc(O)cc2)NC(=O)[C@H](CCC(N)=O)NC(=O)[C@@H]2CCCN2C(=O)[C@@H]2CSSC[C@H](NC(=O)[C@H](C)NC(=O)[C@H](CO)NC(=O)[C@H](CCC(=O)O)NC(=O)[C@H](CCC(=O)O)NC(=O)[C@@H](N)[C@@H](C)O)C(=O)NCC(=O)NCC(=O)N[C@@H](Cc3ccccc3)C(=O)N[C@@H](CC(N)=O)C(=O)N[C@@H](C)C(=O)N[C@@H](CCCNC(=N)N)C(=O)N[C@H]3CSSC[C@H](NC1=O)C(=O)N[C@@H](CCCCN)C(=O)NCC(=O)N[C@@H](Cc1c[nH]c4ccccc14)C(=O)N[C@@H](CCCNC(=N)N)C(=O)N[C@@H]([C@@H](C)O)C(=O)N[C@@H](CCCCN)C(=O)N[C@@H](CCCNC(=N)N)C(=O)N[C@H](C(=O)N[C@@H](CC(C)C)C(=O)N[C@@H](CC(N)=O)C(=O)N1CCC[C@H]1C(=O)O)CSSC[C@H](NC(=O)[C@H](CCCCN)NC(=O)[C@H](Cc1c[nH]cn1)NC(=O)[C@H](CC(C)C)NC(=O)[C@@H]1CCCN1C3=O)C(=O)N2 [MrVIII] (H-TEESACGGFNARCPLHKCCPQYICKGWRTKRCLNP-OH; disulfide 6-19, 13-24, 18-32; N-terminus and C-terminus assumed)
- inhi%(495 ms), Kv1.7 current ([1]; 10 μM (saturating), current at 495 ms, +30 mV): 33.3 ± 3.0%
- IC50 ([1]; current measured at 50 ms of a 500 ms depolarization to +30 mV, n = 4–7): 199 ± 50.3 nM
- inhibition of Kv1.1/Y256A current [2]: −9.5 ± 4.4%
- inhibition of Kv1.5/Y368A current [3]: 19.1 ± 6.2%
- inhibition of Kv1.7/Y253A current [4]: −9.4 ± 13.6%
- inhibition of Kv1.4/Y416A current [5]: 63.5 ± 18.4%
- IC50 ([6]; +30 mV, mean ± SD, n = 6, SD, read-out: IC50, Kv1.7/A256T current (full inhibition)): 138 ± 50.3 nM
- potency on Kv1.7/A256T weaker than on the Kv1.3 channel ([6]; ratio of IC50 values): approximately 28 fold
